Assay results published in patent US20260001876A1, “Compounds and Their Use as PDE4 Activators” (Mironid Limited, priority 2022, published 2026).

Tested on: m-IMCD3 cells
Test: Inhibition of PGE2-stimulated in vitro cyst formation in m-IMCD3 cells (3D culture)
Format: cell-based
Conditions: Mus musculus, mIMCD3, 144 h, mean cyst area, 100% for (DMSO + PGE2) and 0% for DMSO control, 6 days of culture; for activity at 3 µM: read-out: % Cyst area* after incubation with 3 μM test compound; for activity at 10 µM: read-out: % Cyst area* after incubation with 10 μM test compound
Description: HEK 293 and MDCK cells (Public Health England, Cell Culture Collections) were maintained in Dulbecco's Modified Eagle's Medium (DMEM) supplemented with 10% (v/v) fetal bovine serum (FBS) (Seralab), 2 mM L-glutamine and 100 U/mL penicillin streptomycin cocktail (ThermoFisher); termed complete media. Clonal HEK 293 cell lines were maintained in complete media supplemented with 0.6 mg/ml G418 (Enzo Life Sciences). Mouse inner medullary collecting duct (m-IMCD3) cells [American Type Culture Collection (ATCC)] were maintained in media consisting of DMEM/Hams F-12 50/50 Mix (DMEM F12; Corning) supplemented with penicillin streptomycin cocktail (100 U/mL) and FBS (10% v/v) (DMEM F12-10% FBS).
Experiment 3: Inhibition of In Vitro Cyst Formation in m-IMCD3 Cells Treated with PDE4 Long Form Activators
The mouse Inner Medullary Collecting Duct cell line (m-IMCD3) spontaneously forms cystic spheroids in 3D culture with a Type 1 collagen/Matrigel extracellular matrix. This process can be stimulated with agents which raise intracellular cAMP and is used as an in vitro model for the formation of cystic structures in the kidneys of patients with ADPKD.
Rat Collagen I (Fisher Scientific) is prepared on ice by neutralising with 1M NaOH and diluting with a 2× volume of DMEM/F12+10% FBS. This is mixed 1:1.1 with ice cold Matrigel (Corning) for coating plates (coating mix), and 1:0.93 with Matrigel for cell plating (plating mix).
The assay is conducted in the wells of a 96-well plate culture dish using a total volume of 130 μL of collagen/Matrigel/DMEM F12-10% FBS suspension in growth media for each matrix plug per individual well. Initially, 30 μL of collagen/Matrigel/DMEM F12-10% FBS (coating mix) is added into the well of a 96 well plate and the collagen is set to a gel by incubating at 37° C. for at least 15 minutes. A second layer of 100 μL collagen/Matrigel suspension (plating mix) containing m-IMCD3 cells (2.75×10^6 m-IMCD3 cells per 96-well plate) is layered over the coating mix and the collagen/Matrigel/cell mix again set to a gel by incubating at 37° C. Cell cultures are maintained at 37° C. in an atmosphere of 5% CO2, 95% air.
Between 18 and 24 h after plating, test compound(s) as DMSO stock solutions [0.1% (v/v) final DMSO concentration] and PGE2 (100 nM final concentration) in DMEM F12-10% FBS are added in quadruplicate wells per condition. Media, together with the test compound and PGE2 are replenished after 2 or 3 days. After 6 days of culture z stack images of the wells are captured using the Nikon Eclipse Ti2-E microscope. Nikon General Analysis software is used to measure the following parameters in each well: the mean cyst area, the number of cysts, and the total cyst area.
PDE4 long form activators inhibited in vitro cyst formation in m-IMCD3 cells. Data are shown in Table 4 as mean cyst area (%), compared to 100% for (DMSO+PGE2) and 0% for DMSO control.

COCCN1CC2CCC(C1)N2c1ccc2c(n1)CCN(C(=O)COc1ccc(F)cc1)C2 [Example 173, 2-(4-fluorophenoxy)-1-(2-(3-(2-methoxyethyl)-3,8-diazabicyclo[3.2.1]octan-8-yl)-7,8-dihydro-1,6-naphthyridin-6(5H)-yl)ethan-1-one]
activity at 3 µM: 3%

O=C(CC1CCCC1)N1CCc2nc(N3C4CCC3CNC4)ncc2C1 [Example 142, 1-(2-(3,8-diazabicyclo[3.2.1]octan-8-yl)-7,8-dihydropyrido[4,3-d]pyrimidin-6(5H)-yl)-2-cyclopentylethan-1-one]
activity at 3 µM: 26%

O=C(COc1ccc(F)cc1)N1CCc2nc(N3CCNCC3)ccc2C1 [Example 180, 2-(4-fluorophenoxy)-1-(2-(piperazin-1-yl)-7,8-dihydro-1,6-naphthyridin-6(5H)-yl)ethan-1-one]
activity at 3 µM: 11%

O=C(C1CCCC1)N1CCc2nc(N3C4CCC3CNC4)ccc2C1 [Example 47, (2-(3,8-diazabicyclo[3.2.1]octan-8-yl)-7,8-dihydro-1,6-naphthyridin-6(5H)-yl)(cyclopentyl)methanone]
activity at 10 µM: 5%

Cc1ncccc1-c1ccc2c(n1)CCN(C(=O)CC1CCCC1)C2 [Example 181, 2-cyclopentyl-1-(2-(2-methylpyridin-3-yl)-7,8-dihydro-1,6-naphthyridin-6(5H)-yl)ethan-1-one]
activity at 3 µM: 26%

CCN1CCN(c2ccc3c(n2)CCN(S(=O)(=O)Cc2ccc(F)cc2)C3)CC1 [Example 161, 2-(4-ethylpiperazin-1-yl)-6-((4-fluorobenzyl)sulfonyl)-5,6,7,8-tetrahydro-1,6-naphthyridine]
activity at 3 µM: 0%

O=C(CC1CCCC1)N1CCc2nc(N3CCN[C@H](CO)C3)ccc2C1 (single isomer, unassigned) [Example 132]
activity at 10 µM: -4%

CC(C)(C)CC(=O)N1CCc2nc(N3C4CCC3CNC4)ncc2C1 [Example 146, 1-(2-(3,8-diazabicyclo[3.2.1]octan-8-yl)-7,8-dihydropyrido[4,3-d]pyrimidin-6(5H)-yl)-3,3-dimethylbutan-1-one]
activity at 3 µM: 22%

CN1CC2CCC(C1)N2c1ccc2c(n1)CN(C(=O)CC1CCC(F)(F)CC1)C2 [Example 93, 2-(4,4-difluorocyclohexyl)-1-(2-(3-methyl-3,8-diazabicyclo[3.2.1]octan-8-yl)-5,7-dihydro-6H-pyrrolo[3,4-b]pyridin-6-yl)ethan-1-one]
activity at 10 µM: -3%

O=C(N1Cc2ccc(N3C4CCC3CNC4)nc2C1)C(F)(F)c1ccccc1 [Example 130, 1-(2-(3,8-diazabicyclo[3.2.1]octan-8-yl)-5,7-dihydro-6H-pyrrolo[3,4-b]pyridin-6-yl)-2,2-difluoro-2-phenylethan-1-one]
activity at 10 µM: -10%

Cc1cncc(-c2ccc3c(n2)CCN(C(=O)CC2CCCC2)C3)c1 [Example 182, 2-cyclopentyl-1-(2-(5-methylpyridin-3-yl)-7,8-dihydro-1,6-naphthyridin-6(5H)-yl)ethan-1-one]
activity at 3 µM: 50%

CCN1CC2CCC(C1)N2c1ccc2c(n1)CCN(C(=O)COc1ccc(F)cc1)C2 [Example 171, 1-(2-(3-ethyl-3,8-diazabicyclo[3.2.1]octan-8-yl)-7,8-dihydro-1,6-naphthyridin-6(5H)-yl)-2-(4-fluorophenoxy)ethan-1-one]
activity at 3 µM: 4%

O=C(c1ccccc1)N1CCc2nc(N3C4CCC3CNC4)ccc2C1 [Example 120, (2-(3,8-diazabicyclo[3.2.1]octan-8-yl)-7,8-dihydro-1,6-naphthyridin-6(5H)-yl)(phenyl)methanone]
activity at 3 µM: 1%

CCN1CC2CCC(C1)N2c1ccc2c(n1)CCN(C(=O)N[C@H]1CCOc3ccccc31)C2 [Example 167, N—((S)-chroman-4-yl)-2-(3-ethyl-3,8-diazabicyclo[3.2.1]octan-8-yl)-7,8-dihydro-1,6-naphthyridine-6(5H)-carboxamide]
activity at 3 µM: -8%

O=C(Cc1ccccc1)N1CCc2nc(N3CC4CCC(C3)N4)ncc2C1 [Example 135, 1-(2-(3,8-diazabicyclo[3.2.1]octan-3-yl)-7,8-dihydropyrido[4,3-d]pyrimidin-6(5H)-yl)-2-phenylethan-1-one]
activity at 3 µM: -5%

O=C(N1CCCC1)N1Cc2ccc(N3C4CCC3CNC4)nc2C1 [Example 95, (2-(3,8-diazabicyclo[3.2.1]octan-8-yl)-5,7-dihydro-6H-pyrrolo[3,4-b]pyridin-6-yl)(pyrrolidin-1-yl)methanone]
activity at 10 µM: -2%

O=C(OC1CCCC1)N1CCc2nc(N3C4CCC3CNC4)ccc2C1 [Example 125, cyclopentyl 2-(3,8-diazabicyclo[3.2.1]octan-8-yl)-7,8-dihydro-1,6-naphthyridine-6(5H)-carboxylate]
activity at 3 µM: -3%

O=S(=O)(Cc1ccccc1)N1CCc2nc(N3CCNCC3)ccc2C1 [Example 164, 6-(benzylsulfonyl)-2-(piperazin-1-yl)-5,6,7,8-tetrahydro-1,6-naphthyridine]
activity at 3 µM: 0%

CCN1CCN(c2ccc3c(n2)CCN(C(=O)N[C@H]2CCOc4ccccc42)C3)CC1 [Example 169, (S)—N-(chroman-4-yl)-2-(4-ethylpiperazin-1-yl)-7,8-dihydro-1,6-naphthyridine-6(5H)-carboxamide]
activity at 3 µM: -4%

O=C(c1ccc(F)cc1)N1CCc2nc(N3C4CCC3CNC4)ccc2C1 [Example 123, (2-(3,8-diazabicyclo[3.2.1]octan-8-yl)-7,8-dihydro-1,6-naphthyridin-6(5H)-yl)(4-fluorophenyl)methanone]
activity at 3 µM: -7%

CCN1CCN(c2ccc3c(n2)CCN(S(=O)(=O)Cc2ccccc2)C3)CC1 [Example 165, 6-(benzylsulfonyl)-2-(4-ethylpiperazin-1-yl)-5,6,7,8-tetrahydro-1,6-naphthyridine]
activity at 3 µM: -1%

O=C(CC1CCCC1)N1CCc2nc(N3CCN[C@@H](CO)C3)ccc2C1 (single isomer, unassigned) [Example 131]
activity at 10 µM: -4%

CC(C)[C@H](C)C(=O)N1Cc2ccc(N3C4CCC3CNC4)nc2C1 [Example 128, (2S)-1-(2-(3,8-diazabicyclo[3.2.1]octan-8-yl)-5,7-dihydro-6H-pyrrolo[3,4-b]pyridin-6-yl)-2,3-dimethylbutan-1-one]
activity at 3 µM: 3%

O=C(Cc1ccccc1)N1CCc2nc(N3C4CCC3CNC4)ncc2C1 [Example 133, 1-(2-(3,8-diazabicyclo[3.2.1]octan-8-yl)-7,8-dihydropyrido[4,3-d]pyrimidin-6(5H)-yl)-2-phenylethan-1-one]
activity at 3 µM: -5%

O=C(CC1CCCCC1)N1CCc2nc(N3CCNCC3)ncc2C1 [Example 145, 2-cyclohexyl-1-(2-(piperazin-1-yl)-7,8-dihydropyrido[4,3-d]pyrimidin-6(5H)-yl)ethan-1-one]
activity at 3 µM: 15%

O=C(N1CCCC1)N1CCc2nc(N3C4CCC3CNC4)ccc2C1 [Example 61, (2-(3,8-diazabicyclo[3.2.1]octan-8-yl)-7,8-dihydro-1,6-naphthyridin-6(5H)-yl)(pyrrolidin-1-yl)methanone]
activity at 10 µM: 3%

O=C(OCc1ccccc1)N1CCc2nc(N3C4CCC3CNC4)ccc2C1 [Example 127, benzyl 2-(3,8-diazabicyclo[3.2.1]octan-8-yl)-7,8-dihydro-1,6-naphthyridine-6(5H)-carboxylate]
activity at 3 µM: 3%

O=C(NC1CCC(F)(F)CC1)N1Cc2ccc(N3C4CCC3CNC4)nc2C1 [Example 89, 2-(3,8-diazabicyclo[3.2.1]octan-8-yl)-N-(4,4-difluorocyclohexyl)-5,7-dihydro-6H-pyrrolo[3,4-b]pyridine-6-carboxamide]
activity at 10 µM: 2%

O=C(CC1CCC(F)(F)CC1)N1Cc2ccc(N3C4CCC3CNC4)nc2C1 [Example 87, 1-(2-(3,8-diazabicyclo[3.2.1]octan-8-yl)-5,7-dihydro-6H-pyrrolo[3,4-b]pyridin-6-yl)-2-(4,4-difluorocyclohexyl)ethan-1-one]
activity at 10 µM: 0%
